# Source: US10092537B2, “Use for PAI-1 inhibitor” (RENASCIENCE CO., LTD., priority 2013, dated 2018)
# Legend:
# [1] = Single-dose toxicity test using rat (Experimental Example 6); conditions: 500, 1,000, and 2,000 mg/kg oral gavage
# [2] = 2-week repeated-dose toxicity test using rat (Experimental Example 6); format: in vivo, Sprague-Dawley rats; conditions: 200, 600 and 2,000 mg/kg/day oral, repeatedly for 2 weeks; male and female rats
# Method: Compound a was orally administered in 0 (0.5 w/v % carmellose sodium solution), 200, 600 and 2,000 mg/kg/day dosages to a male rat group and a female rat group each containing 5 Sprague-Dawley rats (Crl:CD(SD), 6-week old at the onset of administration) repeatedly for 2 weeks, and a toxicity test was conducted.
# [3] = test system: hematopoietic stem cells; experiment: Fibrinolytic pathway activation and bone-marrow regeneration after lethal radiation (9Gy) and bone-marrow transplantation, compound a versus recombinant tPA (Experimental Example 7)
# Method: Within 4 hours, 1.0×10^6 bone-marrow mononucleic cells (BM MNC) were intravenously inoculated into retro-orbital plexus. Concurrently with transplantation, compound a (dosage 100 mg/kg) or recombinant tPA (dosage 100 mg/kg, Eisai Co., Ltd) were administered as a test compound via oral gavage, and the test compound was orally administered for 5 consecutive days (administered group). As a control test, instead of the test compound, physiological saline (vehicle) used for dissolving compound a was orally administered in the same manner (control group).
# Blood was collected 2 and 7 days after bone-marrow transplantation, and the active PAI-1 level (ng/mL), active tissue-type plasminogen activator (active tPA), plasmin level (ng/mL), cKit ligand, and total MMP-9 (Matrix metalloprotein-9) in the plasma were measured.
# [4] = test system: CML cells; experiment: Chronic myelogenous leukemia model mice, compound a alone, imatinib, combination (Experimental Example 16); format: in vivo; conditions: day 10 to day 16
# Method: (§1) Group 1: placebo group (physiological saline was administered via gavage)
# Group 2: compound a group (compound a [100 mg/kg/day] was administered via gavage)
# Group 3: imatinib group (imatinib [150 mg/kg/day] was administered via gavage)
# Group 4: imatinib+compound a group (imatinib [150 mg/kg/day] and compound a [100 mg/kg/day] were administered via gavage)
# 10 days after (day 10) the day on which CML cells were intravenously inoculated (day 0), administration of test drugs to the groups was started. The placebo group, the compound a group, and the imatinib group were administered the respective test drugs once a day from day 10 to day 16 (7 doses in total). The imatinib+compound a group was administered imatinib once a day from day 10 to day 16 (7 doses in total), and also administered compound a once a day from day 10 to day 16 (7 doses in total).
# [5] = test system: human hematopoietic stem cells; experiment: Transplantation of human CD34+ umbilical cord blood cells into irradiated severely immunocompromised mice (Experimental Example 2); format: in vivo; conditions: 100 mg/kg oral, 6 doses, 7 days after cell transplantation
# Method: Severely immunocompromised mice (recipient) were exposed to radiation (2Gy), and two days later, human CD34^+ cells isolated from human umbilical cord blood were transplanted into the mice. Concurrently with the transplantation, compound a was orally administered into the mice as a test compound (dosage: 100 mg/kg), and the compound was further administered for 5 consecutive days; i.e., 6 doses in total (see FIG. 2A). 2 days after the last administration (7 days after the cell transplantation), the bone-marrow cells were collected, and the abundance ratio of human hematopoietic cells was measured with a flow cytometric analyzer, whereas the cKitL concentration (μg/mL) and VEGF concentration (μg/mL) in the plasma were also measured.
# [6] = test system: Her2-A20 cell; experiment: Her2-A20 cell subcutaneous tumor, Herceptin and compound c (Experimental Example 19); format: in vivo, BALB/c-nude mice; conditions: Herceptin 20 mg/kg i.p. (2 doses) + compound c 10 mg/kg/day oral; 15 days after administration
# Method: At first, A20 cell line (mouse B lymphoma) was transfected with human Her2 cDNA using MIGR1 vector to prepare transformed cells (hereinafter, “Her2-A20 cell”). The Her2-A20 cells (5×10^6) were subcutaneously inoculated into BALB/c-nude mice. […] Compound c or physiological saline was administered once a day, 5 doses in total (day 0 to day 4). […] Compound c or physiological saline was administered once a day, 7 doses in total (day 7 to day 13).
# [7] = test system: CML cells; experiment: Chronic myelogenous leukemia model mice, CML cells engrafted onto bone marrow by FACS (Experimental Example 15); format: in vivo
# Method: Chronic myelogenous leukemia model mice prepared in accordance with the procedure of Experimental Example 11 (1) were divided into 3 groups (each group: n=15) and administered respective test drugs.
# as §1
# Group 2: imatinib group (imatinib [150 mg/kg/day] was administered via gavage)
# Group 3: imatinib+compound c group (imatinib [150 mg/kg/day] and compound c [10 mg/kg/day] were administered via gavage)
# 8 days (day 8) after the day on which CML cells were intravenously inoculated (day 0), administration of test drugs to the groups was started. The placebo group and the imatinib group were administered the respective test drugs once a day from day 8 to day 14 (7 doses in total). The imatinib+compound c group was administered imatinib once a day from day 8 to day 14 (7 doses in total), and also administered compound c once a day from day 8 to day 14 (7 doses in total).
# CML cells engrafted onto bone marrow were analyzed by FACS immediately before the administration of a test drug (day 8; “immediately before antitumor agent treatment” in FIG. 19), immediately after the completion of administration of a test drug (day 14; “immediately after antitumor agent treatment” in FIG. 19), and day 28 from the start of administration of a test drug (day 36; “after 28 days” in FIG. 19). […] About 50% leukemia cells were grafted on the bone marrow immediately before administration of a test drug (day 8; “immediately before antitumor agent treatment” in FIG. 19). After the tumor-bearing mice were administered a test drug 7 times (day 14), the proportion of CML cells was analyzed. […] All of the mice in the group administered physiological saline died.
# [8] = target: T1, human PAI-1 (Homo sapiens, UniProt P05121); experiment: Measurement of PAI-1 inhibitory activity of compound group 1 (t-PA, Spectrozyme t-PA chromogenic substrate); conditions: read-out: PAI-1 activity %
# T1 sequence (P05121 24-402): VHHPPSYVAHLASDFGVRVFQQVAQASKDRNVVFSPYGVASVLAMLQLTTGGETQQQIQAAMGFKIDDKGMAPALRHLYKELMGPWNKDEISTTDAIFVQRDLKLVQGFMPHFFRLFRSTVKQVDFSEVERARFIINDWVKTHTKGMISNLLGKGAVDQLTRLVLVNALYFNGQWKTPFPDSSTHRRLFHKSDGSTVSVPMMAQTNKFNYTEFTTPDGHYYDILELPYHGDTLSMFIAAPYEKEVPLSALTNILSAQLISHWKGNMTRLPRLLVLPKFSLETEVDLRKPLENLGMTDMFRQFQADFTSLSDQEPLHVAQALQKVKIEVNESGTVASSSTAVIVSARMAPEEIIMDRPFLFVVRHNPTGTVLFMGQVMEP
# [9] = target: T1, human PAI-1; experiment: Measurement of PAI-1 inhibitory activity of compound group 1 (t-PA, S-2288 chromogenic substrate); conditions: read-out: PAI-1 activity %
# Method: Subsequently, human-derived tissue plasminogen activator (t-PA) (manufactured by American Diagnostica, Inc. (USA); the same applies hereinafter) adjusted to 0.35 pmol/μL was added thereto, and the mixture was further incubated at 37° C. for 15 minutes.
# [10] = 2 and 7 days after transplantation, among control, tPA and compound a groups
# [11] = tPA group compared with control group, compound a group compared with tPA group
structure (smiles),measurement,setting,value
"O=C(COCC(=O)N1CCN(C(c2ccccc2)c2ccccc2)CC1)Nc1ccc(Cl)cc1C(=O)[O-].[Na+] [Example 30 (compound group 2), 2-(2-(2-(4-benzhydrylpiperazin-1-yl)-2-oxoethoxy)acetamido)-5-chlorobenzoic acid sodium salt]",autopsy findings,[1]; after 2 weeks,no particular abnormality
same,abnormality during 2-week monitoring,[1]; male and female rats,None of the male and female rats showed abnormality
same,toxicity given in a single dose,"[1]; male and female rats, monitored 2 weeks",low
same,"change in general state, weight, food intake, urine test, hematological test, blood chemical test, pathological test",[2],no obvious change
same,level of cKitL in plasma,[3]; [10],highest level
same,level of plasmin in plasma,[3]; [10],highest level
same,level of total MMP-9 in plasma,[3]; [10],highest level
same,level of active tPA in plasma,"[3]; 7 days after transplantation, among control, tPA and compound a groups",highest level
same,expression of active PAI-1 in the plasma,"[3]; compound a or recombinant tPA 100 mg/kg, 5 consecutive days, 2 and 7 days after bone-marrow transplantation",did not exhibit an expression of active PAI-1
same,survival rate on day 28 from bone-marrow transplantation,"[3]; lethal radiation 9Gy, 100 mg/kg, 5 consecutive days, n=15, control group 20%",70%
same,platelet count in the peripheral blood,[3]; [11],significantly increased
same,white blood cell count in the peripheral blood,[3]; [11],significantly increased
same,survival,"[4]; compound a 100 mg/kg/day alone, all of the subject mice, as placebo",died during the period from day 10 to day 20
same,survival rate on day 50,[4]; imatinib 150 mg/kg/day + compound a 100 mg/kg/day via gavage,60%
same,"absolute number of human hematopoietic cells in the bone marrow, versus control group",[5]; control PBS,3 to 10 times higher
same,"chimerism of human hematopoietic cells (CD45+) in the bone marrow, versus control group",[5]; control PBS,2 to 9 times higher
same,VEGF in the plasma,[5]; versus control,increased
same,cKitL in the plasma,[5]; versus control,increased
same,proportion of CD34+ cell (human HSC) contained in human hematopoietic cells,[5]; versus control,increased
"O=C(Nc1ccc(Cl)cc1C(=O)O)c1cccc(-c2ccccc2)c1 [Example 4, 2-[(biphenyl-3-ylcarbonyl)amino]-5-chlorobenzoic acid]",tumor volume versus other groups,[6],significantly smaller
same,CML (leukemia) cells in the bone marrow,"[7]; imatinib 150 mg/kg/day + compound c 10 mg/kg/day, day 8 to day 14, analysed day 36",1.8%
same,proportion of CML cells in the bone marrow,"[7]; imatinib + compound c, day 14, after 7 doses, about 50% before treatment",marked decrease
same,activity at 2.5 µM,[8],62.1%
same,activity at 10 µM,[8],0.6%
same,activity at 20 µM,[9],47.7%
same,activity at 50 µM,[9],7.6%
